{"source": "paper PMC10119930", "about": "“Dual Molecules Targeting 5-HT6 and GABA-A Receptors as a New Approach to Combat Depression Associated with Neuroinflammation” (ACS Chemical Neuroscience, 2023)", "key": {"female Wistar rats": {"tested_on": "female Wistar rats", "test": "Forced swim test in rats", "type": "in vivo, rat", "method": "Naïve female Wistar rats (weighing 180–200 g) were used in the study. The animals were housed in groups of three to four in standard Makrolon cages (37 cm × 21 cm × 15 cm) under strictly controlled laboratory conditions (ambient temperature 21–24 °C, relative humidity 45–65%) with a 12/12 h light–dark regime (light on at 6:00 a.m. and off at 6:00 p.m.). Animals had unrestricted access to tap water and food (typical pellets). Prior the experiment the animals were randomly appointed to the group. The behavioral studies were accomplished between 8:00 a.m. and 5:00 p.m. with the researcher blind to the study. The experiments were performed according to protocols approved by the Local Ethical Committee in Krakow (Approval Number 147/2018), Poland. Housing and experimental procedures were conducted under the European Union Directive of September 22, 2010 (2010/63/EU) and Polish legislation regarding animal studies. All efforts were made to minimize animal suffering and the number of animals used in the study.\nVortioxetine (Sigma, Germany) and the tested compounds (16 and 6) were dissolved in 10% cyclodextrin and administered ip 30 min before the test or during 14 consecutive days, with the last injection 60 min before the test. 10% cyclodextrin was administrated to control group.\nA modified forced swim test was carried out according to Detke et al.[50],[51] First, the animals were individually placed inside Plexiglas cylinders, which were 40 cm high and 18 cm in diameter, filled with water at a temperature of 23–25 °C for 15 min. Afterward, the rats were transferred to a Plexiglas box and kept under a 60 W bulb for 30 min to dry. The day after, exactly 24 h later, the rats were once again placed in the cylinder, and their duration of immobility, swimming, and climbing was observed and recorded during a 5 min. The swimming behavior involved energetic movements such as horizontal swimming around the cylinder, while climbing activity referred to upward movements of the forepaws along the swim chamber’s side. Immobility was recorded when the rat only made necessary movements to keep its head above the water. For each test, a fresh water was provided. Open field test in rats: The test was conducted as previously reported by our research group.[52] The test was performed in a darkened room employing the Motor Monitor System (Campden Instruments, Ltd., U.K.). The system was equipped with two SmartFrame Open Field stations, each measuring 40 cm × 40 cm × 38 cm and consisting of 16 × 16 beams. These stations were placed inside sound-attenuating chambers and connected to a PC software using […]. The animals, belonging to either the vehicle-injected or drug-injected group, were individually positioned at the center of the station. The Motor Monitor System, which was automated, recorded the animal’s ambulation in both the X and Y axes, as well as the number of rearing and peeping episodes. Additionally, the total distance traveled by each animal during the 5 min test period was also recorded. Statistical analysis: Results are presented as the mean ± SEM values. They were estimated using one-way analysis of variance (ANOVA), followed by Newman–Keuls post hoc or unpaired two-tailed Student t test. Statistical significance was considered when p < 0.05 for differences between groups."}, "[1]": {"test": "Metabolic stability in rat liver microsomes", "type": "in vitro ADME", "conditions": "assayed at 10^–7 M", "method": "The assay was performed by Eurofins Discovery, a contract research organization, according to standard methodology, described previously.[46]"}, "[2]": {"tested_on": "human α1β2γ2-GABA-A receptors", "test": "Electrophysiological studies, automated patch clamp (QPatch16X), HEK293 cells", "type": "cell-based", "conditions": "agonist mode, compound at 10 μM; current amplitude normalized to 10 μM GABA response; ±S.E.M.", "method": "Electrophysiological studies were acquired using the QPatch16X automatic patch clamp platform (Sophion Biosciences) as described before.[42],[43] […] Before the assay, cells were detached from the culture flask by treating them with TrypLE Express solution (Life Technologies) and subsequently suspended in serum-free media. The cells were loaded into a 1.5 mL microtube on the automated electrophysiology instrument, which subsequently performed a spin-down using its built-in centrifuge. Following this, the cells were washed with Ringer’s extracellular solution. The cells were moved to the pipetting wells of a 16-channel planar patch chip plate (QPlate 16X) designed for single-use. A combined suction/voltage protocol was then applied to establish gigaseals. […] During the entire whole-cell recording, the holding potential was maintained at −90 mV. […] The intracellular solution contained 140 mM CsF, 1 mM EGTA, 5 mM CsOH, 10 mM HEPES, 20 mMNaCl (pH 7.2, 320 mOsm). […] The acquired data were examined with QPatch assay software (v5.0, Sophion Biosciences)[44] and are represented as the mean of three separated measurements performed on distinct cells. The efficacy of the tested molecules was determined by calculating the baseline-corrected ratio of the maximum current amplitudes elicited by the tested compounds and the reference agonist (T1-ATG/AG1-ATG or T2-ATG/AG1-ATG). The raw current recordings were standardized and presented as a percentage of the current amplitude evoked by the reference agonist, using the QPatch assay software (v5.0, Sophion Biosciences)."}, "5-HT6 receptor": {"molecular_target": "5-HT6 receptor (Homo sapiens, UniProt P50406)", "sequence (P50406 whole entry)": "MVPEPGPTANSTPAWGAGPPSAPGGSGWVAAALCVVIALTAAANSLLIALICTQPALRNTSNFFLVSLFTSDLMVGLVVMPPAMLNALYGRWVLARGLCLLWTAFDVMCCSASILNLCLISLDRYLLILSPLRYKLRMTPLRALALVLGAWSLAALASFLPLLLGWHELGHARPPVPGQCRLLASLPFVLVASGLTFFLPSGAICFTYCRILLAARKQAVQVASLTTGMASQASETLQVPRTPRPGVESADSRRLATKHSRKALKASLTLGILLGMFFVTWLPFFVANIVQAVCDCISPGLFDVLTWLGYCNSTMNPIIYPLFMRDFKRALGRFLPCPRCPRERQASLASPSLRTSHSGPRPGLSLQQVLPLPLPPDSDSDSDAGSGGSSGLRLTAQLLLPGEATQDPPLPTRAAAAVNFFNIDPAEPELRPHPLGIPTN", "test": "Functional assay for 5-HT6 receptor, antagonist mode (aequorin, CHO-K1 cells)", "type": "cell-based", "parameters": "expressed in transfected cells; host or cells: CHO-K1 (co-expressing mitochondrially targeted aequorin and G protein α16)", "conditions": "±S.E.M., read-out: 5-HT6 R KB", "method": "The studies were acquired according to previous protocols.[41] All the examined compounds (novel and the reference) were dissolved in DMSO (1 mM) and diluted accordingly using the assay buffer, directly in 96-well microplate. The recombinant CHO-K1 cells expressing human GPCR, mitochondrially targeted aequorin, and the promiscuous G protein α16 specific for 5-HT6 were used for the functional assay. The cells were thawed and suspended in the appropriate buffer containing DMEM/HAM’s F12 with 0.1% protease free BSA and were then centrifuged. After adding coelenterazine h to a final concentration of 5 μM, the cell pellet was resuspended in the buffer. The cell suspension was incubated at 16 °C for 16 h while being protected from light, gently shaken, and diluted with assay buffer to a concentration of 5000 cells/mL. Following that, 50 μL of the cell suspension was introduced to preloaded white opaque 96-well microplates containing the tested molecules. This was done using the automatic injectors integrated into the radiometric and luminescence plate counter MicroBeta2 LumiJET (PerkinElmer, USA). The light emission resulting from calcium mobilization was monitored for a duration of 60 s. For examination of the antagonistic properties of tested molecule, following 30 min of incubation, the reference agonist was administrated and the light emission was detected."}, "[3]": {"conditions": "acute, 3 mg/kg ip 30 min before test"}}, "note": "Where “and” joins values, the source holds several entries; their conditions need not be identical. Equal entries are not always repeated."}
{"smiles": "Cc1c(OCc2ccccc2)cccc1N1CCN(CCOC(=O)CCCN)CC1.Cl.Cl", "note": "[Compound 16, 1-(2-((4-Ammoniobutanoyl)oxy)ethyl)-4-(3-(benzyloxy)-2-methylphenyl)piperazin-1-ium Dichloride]", "values": [{"measurement": "duration of swimming", "setting": "female Wistar rats; [3]", "value": "without affecting the duration of swimming"}, {"measurement": "increase of climbing behaviors vs control group", "setting": "female Wistar rats; [3]", "value": 336.5, "unit": "%"}, {"measurement": "reduction of immobility time vs control group", "setting": "female Wistar rats; [3]", "value": 31.9, "unit": "%"}, {"measurement": "decrease of immobility time vs vehicle-treated group", "setting": "female Wistar rats; subchronic, 3 mg/kg ip for 14 days, test 60 min after last injection", "value": 22.9, "unit": "%"}, {"measurement": "rat liver microsomes Clint", "setting": "[1]", "value": "<115.5 (μL/min)/mg"}, {"measurement": "rat liver microsomes t0,5", "setting": "[1]", "value": ">60", "unit": "min"}, {"measurement": "[%] of 10 μM GABA activity", "setting": "[2]", "value": "24.7% and 24.7 ± 1.5%"}, {"measurement": "Kb", "setting": "5-HT6 receptor", "value": "11.9 ± 0.1", "unit": "nM"}]}
